From patent US20060281728A1, “3-Substituted beta-lactamyl vasopressin v1a antagonists” (priority 2003, published 2006)
pIC50: −log10 of the molar value.

Biological target: human V1a receptor (Homo sapiens, UniProt P37288)
Test: Human vasopressin V1a receptor binding assay
Conditions: competitive binding against 1 nM 3H-AVP, hV1a cell line (CHO cells), 45 minutes at 37° C.
Experimental: A cell line expressing the human V1a receptor in CHO cells (henceforth referred to as the hV1a cell line) was obtained from Dr. Michael Brownstein, NIMH, Bethesda, Md., USA. The hV1a cDNA sequence is described by Thibonnier et al., Journal of Biological Chemistry, 269:3304-3310 (1994), and the expression method was the same as described by Morel et al. (1992). The hV1a cell line was grown in alpha-MEM with 10% fetal bovine serum and 250 ug/ml G418 (Gibco, Grand Island, N.Y., USA). For competitive binding assay, hV1a cells were plated into 6-well culture plate at 1:10 dilution from a confluency flask, and maintained in culture for at least two days. Culture medium was then removed, cells were washed with 2 ml binding buffer (25 mM Hepes, 0.25% BSA, 1×DMEM, PH=7.0). To each well, 990 μl binding buffer containing 1 nM 3H-AVP was added, and followed by 10 μl series diluted Example compounds dissolved in DMSO. All incubations were in triplicate, and dose-inhibition curves consisted of total binding (DMSO) and 5 concentrations (0.1, 1.0, 10, 100, and 1000 nM) of test agents encompassing the IC50. 100 nM cold AVP (Sigma) was used to assess non-specific binding. […] Samples were counted in a liquid scintillation counter (Beckman LS3801). IC50 values were calculated by Prism Curve fitting software.

Chain of human V1a receptor (P37288 whole entry): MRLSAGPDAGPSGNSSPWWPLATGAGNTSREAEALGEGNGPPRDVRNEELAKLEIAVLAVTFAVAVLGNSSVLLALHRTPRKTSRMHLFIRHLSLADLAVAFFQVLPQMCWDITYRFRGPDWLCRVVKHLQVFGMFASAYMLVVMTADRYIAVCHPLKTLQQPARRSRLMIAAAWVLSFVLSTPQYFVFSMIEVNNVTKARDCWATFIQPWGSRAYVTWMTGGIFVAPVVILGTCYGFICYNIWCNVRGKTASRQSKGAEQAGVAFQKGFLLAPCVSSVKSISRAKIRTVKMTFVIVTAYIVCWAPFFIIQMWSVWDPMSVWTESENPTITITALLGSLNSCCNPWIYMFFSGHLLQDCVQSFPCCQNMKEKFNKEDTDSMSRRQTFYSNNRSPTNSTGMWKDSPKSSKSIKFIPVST

pIC50: 8.30
SMILES: C[C@@]1(N2C(=O)OC[C@@H]2c2ccccc2)C(=O)N([C@H](CC(=O)N2CCC(N3CCCCC3)CC2)C(=O)NCc2cccc(C(F)(F)F)c2)[C@@H]1/C=C/c1ccccc1 [Example 33, 4-(Piperidin-1-yl)-piperidin-1-yl 3(R)-[3(S)-(4(S)-phenyloxazolidin-2-on-3-yl)-3-methyl-4(R)-(styr-2-yl)azetidin-2-on-1-yl]-3-[(3-trifluoromethyl)phenylmethylaminocarbonyl]propanoic acid]
